The source of these data is patent US11622966B2 (A2A Pharmaceuticals, Inc., priority 2018, dated 2023).

Data set [1] can be described thus: Stability in mouse liver microsomes. It counts as in vitro ADME. Particulars: MLM.
A short description of data set [2]: Plasma protein binding by equilibrium dialysis. To be noted: human, 37° C. In kind it is in vitro ADME.
Data set [3] deals with normal breast epithelial cells, MCF-12A. Description: Cell viability assay, normal breast cell line. It counts as cell-based. The method, then: Next, the specificity of BO-264 towards cancer cell lines over normal cells were tested.
(§1) KHS101 and SPL-B were dissolved in 100% DMSO to yield a stock concentration of 50 mM. Newly synthesized molecules were dissolved in 100% DMSO to yield a stock concentration of 10 mM. For cell viability assay, JIMT-1 (3×10^3 cells/well), BT-474 T-DM1R (6×10^3 cells/well), MDA-MB-436 (4×10^3 cells/well), MDA-MB-157 (3×10^3 cells/well) and MCF-12A (5×10^3 cells/well) cells were seeded, and 24 hours after cell seeding inhibitor treatments were performed at different concentrations. Cell viability was measured 72 hours after treatment with Cell Titer Glo assay as recommended by the manufacturer.

Data set [4] concerns JIMT-1 cells. The data set can be described thus: Western blot of mitotic arrest, DNA damage and apoptosis markers. In kind it is cell-based, human. To be noted: 24 hours, Western blot (FIG. 6C).
In the next data set the test system is JIMT-1 xenografts. Description: Breast cancer xenograft experiments (JIMT-1 in mammary fat pad). It counts as in vivo, female athymic nude mice. Here is the method:
Six-to-eight-week-old female athymic nude mice were housed with a temperature-controlled and 12-hour light/12-hour dark cycle environment. This study was carried out in accordance with Institutional Animal Care and Use Committee of Bilkent University and performed according to the institution's guidelines and animal research principles. For in vivo tumor growth, 4×10^6 JIMT-1 cells were prepared in 150 μl of 1:1 DMEM and Matrigel (Corning, N.Y., USA), v/v) and injected into the mammary fat pads (MFP) of female nude mice. Mouse weight and tumor volume were measure daily using calipers. Tumor volumes were calculated as length×width×0.5. Once the tumor volume had reached about 100 mm^3, xenografts were randomized into groups.

For data set [5], the system named is JIMT-1 breast cancer cell lines. Description: Cell viability assay (Cell Titer Glo), JIMT-1. It counts as cell-based. Particulars: Homo sapiens, JIMT-1 breast cancer cells, 72 hours, read-out: IC50, proliferation / cell viability of JIMT-1. The method, then:
As mentioned before, none of the available TACC3 inhibitors, such as KHS101 and SPL-B has yet advanced to the clinical studies. […] For this purpose, it was performed in-house screening of a series of small molecules by testing their anti-proliferative effects in breast cancer cells in which TACC3 is aberrantly expressed (Ma et al., 2003; Song et al., 2018). Specifically, JIMT-1 cell line was chosen for screening the effect of compounds in cell viability due to its high TACC3 protein level compared to other tested breast cancer cell lines as well as its in vivo tumorigenicity (Saatci et al., 2018; Tanner et al., 2004) (will be discussed in FIGS. 8 and 9-10, respectively).
as §1

Data set [6] deals with JIMT-1 cells. Description: Colony formation assay. In kind it is cell-based, human. Particulars: 12 days, versus other two inhibitors at the same doses (FIG. 6B). The method, then:
For monolayer culture, single-cell suspensions of JIMT-1 cells (3×10^3 cells/well) were plated in a 12-well plate. […] For both experimental setups, the media were refreshed every 4 days, and cells were incubated for 12 days. Cells were then fixed with 2% paraformaldehyde for 15 min and stained with 1% crystal violet (Merck, Darmstadt, Germany) for 15 min at RT. Surviving colonies (composed of at least 50 cells) were counted with ImageJ software (NIH).

For another data set, the target named is T1, TACC3 (Homo sapiens, UniProt Q9Y6A5).
T1 construct: endogenous in cells; host or cells: JIMT-1
The data set can be described thus: Target engagement assay (drug-target stabilization with increased temperature). It counts as binding. To be noted: JIMT-1 cells.

Data set [7] is described as follows: Stability in human liver microsomes. In kind it is in vitro ADME. To be noted: HLM.
In data set [8] the target is T2, Purified TACC3 recombinant protein (Homo sapiens, UniProt Q9Y6A5).
T2 construct: purchased Origene TP310754
The data set can be described thus: Isothermal titration calorimetry (ITC). In kind it is binding. To be noted: 25° C. Here is the method:
Titrations were carried out using Microcal 200 equipment (GE Healthcare, Austria) at 25° C. For each titration, 10 injections were made with 6 min spacing. The reference power was set at 2 μcal/sec, and the sample cell was continuously stirred at 500 rpm. In order to assess the binding efficiency between drug and protein, background data obtained by protein injected into buffer alone was subtracted from the experimental isotherms. The data was analyzed using Origin 7 Software provided along with the ITC200, and binding parameters such as association constant (Ka), number of binding sites (N) and enthalpy (ΔH) were calculated.

Data set [9] deals with NCI-60 human cancer cell line panel. The data set can be described thus: NCI-60 cancer cell line panel five-dose screening (SRB). To be noted: read-out: GI50 (50% growth inhibition), NCI-60 five-dose screen, ~90% / almost all cell lines. In kind it is cell-based. The method, then: Detailed screening methodology can be accessed from the National Cancer Institute webpage. Briefly, 24 h after cell seeding into 96-well plates, they were treated with 5-log M concentration range of the compound for 2 days. Cytotoxicity was assessed using sulphorhodamine B (SRB) assay.

For data set [10], the system named is JIMT-1, MDA-MB-436, MDA-MB-157 and BT-474 T-DM1R cell lines. Description: Cell viability assay (Cell Titer Glo), breast cancer cell line panel. In kind it is cell-based, human. Particulars: all cell lines tested, 72 hours, Cell Titer Glo (FIG. 6A).
A short description of data set [11]: Kinetic solubility in sodium phosphate buffer. In kind it is physicochemical. To be noted: sodium phosphate buffer pH 7.4, 25° C., 2 h.
Data set [12] concerns glioblastoma (GBM) xenografts. Particulars: Polson et al., 2018; cited from earlier work.
Where [13] appears, read: 5 mg/kg (oral) every two days for 30 days (FIG. 9).

Entries after “also recorded” stand apart in the source; their conditions may differ. Bounds are passed on as bounds.

As to `COc1ccc(-c2cc(Nc3ccnc(N4CCOCC4)n3)on2)cc1` [BO-264, 3-(4-methoxyphenyl)-N-(2-morpholinopyrimidin-4-yl)isoxazol-5-amine], the “stability in mouse liver microsomes” value in [1] is recorded as “low stability”. Also, in data set [2], the fraction unbound stood at 0.0113. Also, the inhibition at 10 µM in data set [3] (Homo sapiens, MCF-12A, 72 h, read-out: growth inhibition of MCF-12A cells) was less than 50%. Further, the “effect on normal breast cell line” value in data set [3] (normal breast cell line) is reported as “minor effects”. For the same compound, the “induction of mitotic arrest, DNA damage and apoptosis markers” value with JIMT-1 cells [4] is reported as “at lower doses compared to other two TACC3 inhibitors; also recorded: in a dose-dependent manner”. Besides, the “body weight of mice” value in the data set on JIMT-1 xenografts (2 mg/kg (oral or i.v) or 5 mg/kg (oral) every two days for 30 days (FIG. 10B)) was “did not have any negative effect”. Moreover, the “tumor growth rate compared with control group” value with JIMT-1 xenografts (2 mg/kg i.v every two days for 30 days (FIG. 10A)) is “decreased”. Also, in the data set with JIMT-1 xenografts (2 mg/kg oral every two days for 30 days (FIG. 10A)), the “tumor growth rate compared with control group” value is given as “decreased”. Besides, in the data set with JIMT-1 xenografts (setting [13]), the “body weight of mice” value was “no negative effects” and the “tumor growth compared to SPL-B” value is listed as “significant reduction of tumor growth”. Besides, the “tumor growth rate compared with control group” value with JIMT-1 xenografts (5 mg/kg (oral) every two days for 30 days (FIG. 10A)) was “the most significant effect on tumor growth”. Besides, the “tumor growth compared to vehicle-treated mice” value in the data set on JIMT-1 xenografts (25 mg/kg oral for 23 days (FIG. 11A)) is listed as “very significant reduction of tumor growth”. Besides, in the data set with JIMT-1 xenografts (25 mg/kg oral for 23 days (FIG. 11B)), the “tumor weights compared to vehicle group” value is “significantly lower”. In addition, in the data set with JIMT-1 xenografts (25 mg/kg oral for 23 days (FIG. 11C)), the “mice weight / tolerability” value is listed as “well tolerated”. In addition, in data set [5], the IC50 was found to be 232 nM. Besides, the “average colony number of JIMT-1 cells” value in the data set with JIMT-1 cells [6] was “significantly lower”. For the same compound, the TACC3-BO-264 binding entry at TACC3 is “validated”. Besides, the “stability in human liver microsomes” value in [7] is “low stability”. In data set [8], the “N (number of binding sites)” value is 0.704, the ΔH was 49290 kcal/mol and the ΔS is recorded as 1.65E5 cal/mol/deg. For the same compound, the “K (association constant)” value in data set [8] (titration of TACC3 into BO-264) amounted to 6.23E8. For the same compound, the GI50 in [9] is less than 1000 nM. The “IC50 values compared with KHS101 and SPL-B” value in [10] was “significantly lower IC50 values than the two available TACC3 inhibitors”. Also, in data set [11], the solubility result is listed as “low solubility”.

As for `CC(C)CNc1ccnc(NCc2csc(-c3ccccc3)n2)n1` [KHS101, reference compound], the “induction of mitotic arrest, DNA damage and apoptosis markers” value in the data set on JIMT-1 cells [4] was “at considerably higher doses; also recorded: only observed at very high doses”. For the same compound, the “tumor growth of glioblastoma (GBM) xenografts” value in data set [12] is given as “suppressed”.
